Assay [1] has as its system LK2 cells. In words: Cell growth inhibitory activity, LK2 cells (Test Example 3). Format: cell-based. The following applies: Homo sapiens, LK-2, 72 h, cultured for 3 days, CellTiter-Glo. Put shortly: (§1)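 LK2 and TE-8 […] cells in RPMI 1640 with 10% FBS exposed to 10-point 4-fold dilutions (10 mM to 38 nM, stock series) for 3 days. ATP luminescence (CellTiter-Glo 2.0) at day 0 and day 3 gave survival as (T3−C0)/(C3−C0)×100; GI50 from semilog plot.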

The next assay addresses CREBBP (Homo sapiens, UniProt Q92793). In words: Histone acetyltransferase inhibitory activity against CREBBP (Test Example 1). Format: biochemical. To be noted: 125 ng/mL CREBBP, 2 μM Acetyl-CoA, 100 nM Histone H4(1-25)-GSGSK (Biotin), 28° C. for 1 hour. Put shortly: (§2)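 Enzyme (50 ng/mL EP300 or 125 ng/mL CREBBP) incubated 1 h at 28° C with 2 μM acetyl-CoA, 100 nM biotinylated histone H4(1-25) peptide and 10 to 0.0006 μM compound in pH 8.0 Tris buffer with 330 nM trichostatin A, 1% DMSO. Reaction stopped with Lys-CoA; acetylation read by TR-FRET (Eu-anti pan-Ac/Sta-ULight) after overnight room-temperature incubation.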

Assay [2] has as its system LK2 cells. Description: Antitumor activity in LK2 cell subcutaneous transplant model (Test Example 4). Format: in vivo, female BALB/c-nu/nu mice. To be noted: dose 6.25 mg/kg/day, test end day. From the text: [Test Example 4] Evaluation of Antitumor Activity in LK2 Cell Subcutaneous Transplant Model
LK2 cells were transplanted at a rate of 2×10^6 cells/head subcutaneously into a right abdominal site of each of female BALB/c-nu/nu mice, and 7 days after, the mice were grouped into groups each consisting of 5 mice based on an estimated tumor volume (longer diameter×shorter diameter×shorter diameter/2) and the weight. The LK2 cells were purchased from Human Science Research Resources Bank. […] The estimated tumor volume of each individual was measured from the day of grouping until 18 days after the transplantation (test end day).
(§3) The antitumor activity in LK2 cell subcutaneous transplant model of Test Example 4, the antitumor activity in TE-8 cell subcutaneous transplant model of Test Example 5, the antitumor activity in KARPASS-422 cell subcutaneous transplant model of Test Example 6, the antitumor activity in NMC10-15 cell subcutaneous transplant model of Test Example 7, and the antitumor activity in VCaP cell subcutaneous transplant model of Test Example 8 were respectively calculated on the end dates of the tests in accordance with the following equation: Tumor Growth Inhibition Rate %=(1−TVCt/TVCc)×100 TVC=(individual tumor volume on test end day)−(individual tumor volume on grouping day)
TVCt: average of TVC values of administration group […]

In assay [3] the test system is TE-8 cells. In words: Cell growth inhibitory activity, TE-8 cells (Test Example 3). It is filed as cell-based. The following applies: Homo sapiens, 72 h, cultured for 3 days, CellTiter-Glo. The method in brief: as §1
The target in another assay is EP300 (Homo sapiens, UniProt Q09472). Description: Histone acetyltransferase inhibitory activity against EP300 (Test Example 1). It is filed as biochemical. To be noted: 50 ng/mL EP300, 2 μM Acetyl-CoA, 100 nM Histone H4(1-25)-GSGSK (Biotin), 28° C. for 1 hour. The method in brief: as §2
Sequence of EP300 (Q09472 whole entry): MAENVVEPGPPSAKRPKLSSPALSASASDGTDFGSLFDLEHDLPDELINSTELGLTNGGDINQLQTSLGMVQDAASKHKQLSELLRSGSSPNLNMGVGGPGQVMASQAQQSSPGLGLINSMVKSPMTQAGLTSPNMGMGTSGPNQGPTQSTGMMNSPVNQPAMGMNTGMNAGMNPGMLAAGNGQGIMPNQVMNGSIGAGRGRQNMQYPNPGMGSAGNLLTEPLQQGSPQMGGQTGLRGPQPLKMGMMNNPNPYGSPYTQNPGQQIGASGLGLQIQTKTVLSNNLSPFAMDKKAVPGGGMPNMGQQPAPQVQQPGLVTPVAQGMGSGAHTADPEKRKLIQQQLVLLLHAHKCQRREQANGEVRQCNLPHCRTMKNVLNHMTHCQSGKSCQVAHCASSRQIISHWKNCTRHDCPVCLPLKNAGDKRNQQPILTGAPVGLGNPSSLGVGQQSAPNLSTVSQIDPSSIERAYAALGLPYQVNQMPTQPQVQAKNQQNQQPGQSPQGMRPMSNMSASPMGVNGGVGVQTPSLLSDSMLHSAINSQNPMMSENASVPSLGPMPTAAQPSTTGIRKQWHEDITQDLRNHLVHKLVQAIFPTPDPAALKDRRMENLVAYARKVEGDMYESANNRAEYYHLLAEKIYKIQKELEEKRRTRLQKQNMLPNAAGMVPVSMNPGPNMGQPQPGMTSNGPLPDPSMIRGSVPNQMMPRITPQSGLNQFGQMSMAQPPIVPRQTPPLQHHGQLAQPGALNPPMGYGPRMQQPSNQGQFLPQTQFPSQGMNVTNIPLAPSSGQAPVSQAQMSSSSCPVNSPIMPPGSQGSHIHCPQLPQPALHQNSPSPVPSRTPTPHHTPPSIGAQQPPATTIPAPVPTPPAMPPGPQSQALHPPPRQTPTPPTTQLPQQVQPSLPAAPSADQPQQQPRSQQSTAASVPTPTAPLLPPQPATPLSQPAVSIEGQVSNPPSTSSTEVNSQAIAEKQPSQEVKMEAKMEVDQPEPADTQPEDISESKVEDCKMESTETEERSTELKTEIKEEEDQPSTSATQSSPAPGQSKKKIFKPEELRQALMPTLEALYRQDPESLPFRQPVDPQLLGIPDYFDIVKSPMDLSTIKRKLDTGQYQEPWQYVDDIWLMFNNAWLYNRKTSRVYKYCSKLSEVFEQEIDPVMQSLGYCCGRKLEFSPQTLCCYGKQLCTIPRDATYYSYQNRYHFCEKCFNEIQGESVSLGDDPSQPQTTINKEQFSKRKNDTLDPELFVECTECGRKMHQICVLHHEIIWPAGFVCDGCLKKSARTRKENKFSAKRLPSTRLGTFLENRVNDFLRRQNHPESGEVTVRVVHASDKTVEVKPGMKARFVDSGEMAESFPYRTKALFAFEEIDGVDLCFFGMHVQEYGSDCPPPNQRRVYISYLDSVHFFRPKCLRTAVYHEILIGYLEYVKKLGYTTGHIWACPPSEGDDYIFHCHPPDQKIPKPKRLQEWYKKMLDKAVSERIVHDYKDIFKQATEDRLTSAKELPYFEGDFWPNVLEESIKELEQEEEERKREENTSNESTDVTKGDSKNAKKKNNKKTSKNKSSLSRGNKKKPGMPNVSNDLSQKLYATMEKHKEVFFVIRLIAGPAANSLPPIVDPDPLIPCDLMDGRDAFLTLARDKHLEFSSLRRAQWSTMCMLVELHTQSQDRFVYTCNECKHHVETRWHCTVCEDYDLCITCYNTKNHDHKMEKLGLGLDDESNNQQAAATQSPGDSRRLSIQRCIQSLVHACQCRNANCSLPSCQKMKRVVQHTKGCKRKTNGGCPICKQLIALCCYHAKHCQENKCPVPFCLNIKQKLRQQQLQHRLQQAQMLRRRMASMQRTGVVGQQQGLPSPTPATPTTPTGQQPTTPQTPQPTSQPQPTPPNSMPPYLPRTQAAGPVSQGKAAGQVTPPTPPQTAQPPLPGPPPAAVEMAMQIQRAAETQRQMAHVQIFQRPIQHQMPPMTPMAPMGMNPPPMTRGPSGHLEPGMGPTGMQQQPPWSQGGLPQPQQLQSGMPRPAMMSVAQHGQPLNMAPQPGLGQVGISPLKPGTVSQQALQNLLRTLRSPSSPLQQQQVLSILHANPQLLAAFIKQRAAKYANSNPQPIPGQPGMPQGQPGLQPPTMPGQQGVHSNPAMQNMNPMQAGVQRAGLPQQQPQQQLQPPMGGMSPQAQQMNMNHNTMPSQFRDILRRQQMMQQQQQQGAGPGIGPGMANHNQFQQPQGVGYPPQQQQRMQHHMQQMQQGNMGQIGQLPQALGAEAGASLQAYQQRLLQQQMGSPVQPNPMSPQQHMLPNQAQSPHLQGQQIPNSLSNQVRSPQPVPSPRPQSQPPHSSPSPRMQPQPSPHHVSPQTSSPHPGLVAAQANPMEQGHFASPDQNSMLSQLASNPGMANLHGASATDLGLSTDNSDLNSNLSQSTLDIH
Another assay has as its system H3K27Ac. Description: Intracellular H3K27Ac inhibitory activity in LK2 cells (Test Example 2). It is filed as cell-based. The following applies: Homo sapiens, LK-2, cultured with compound for 3 hours, read-out: Test Example 2 H3K27Ac Inhibition (LK2) IC50. Put shortly:
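Human squamous lung cancer LK2 cells (40000/well) cultured overnight at 37 °C, 5% CO2 before treatment. After paraformaldehyde fixation, peroxide quench and blocking, H3K27 acetylation detected with anti-acetyl-H3K27 rabbit mAb (4 °C overnight) and HRP secondary; chemiluminescent read-out.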

Assay [4] has as its system TE-8 cells. In words: Antitumor activity in TE-8 cell subcutaneous transplant model (Test Example 5). It is filed as in vivo, female BALB/c-nu/nu mice. The following applies: TE-8 subcutaneous transplant model, dose 2 mg/kg/day, test end day.
From the text: [Test Example 5] Evaluation of Antitumor Activity in TE-8 Cell Subcutaneous Transplant Model
TE-8 cells were transplanted at a rate of 1×10^7 cells/head subcutaneously into a right abdominal site of each of female BALB/c-nu/nu mice, and 9 days after (Example 73) or 10 days after (Examples 35 and 84), the mice were grouped into groups each consisting of 5 mice based on an estimated tumor volume (longer diameter×shorter diameter×shorter diameter/2) and the weight. The TE-8 cells were purchased from Riken Cell Bank. The female BALB/c-nu/nu mice were purchased from Charles River Laboratories Japan, Inc.
From the day of grouping, the compound of Example 73 at a dose set to 2 mg/kg/day was orally administered in accordance with a schedule of twice a day continuously for 9 days (BID x 9). The estimated tumor volume of each individual was measured from the day of grouping until 18 days after the transplantation (test end day).
Besides, from the day of grouping, the compound of […] at a dose set to 2 mg/kg/day was orally administered in accordance with a schedule of twice a day continuously for 11 days (BID x 11). The estimated tumor volume of each individual was measured from the day of grouping until 21 days after the transplantation (test end day).
as §3
TVCt: average of TVC values of administration group
TVCc: average of TVC values of non-administration group

The next assay deals with NMC10-15 cells. Description: Antitumor activity in NMC10-15 cell subcutaneous transplant model (Test Example 7). It is filed as in vivo, female BALB/c-nu/nu mice. To be noted: NMC10-15 subcutaneous transplant model, dose 0.3 mg/kg/day, oral, QD×9, 15 days after transplantation.
From the text: [Test Example 7] Evaluation of Antitumor Activity in NMC10-15 Cell Subcutaneous Transplant Model
NMC10-15 cells derived from human nut midline carcinoma were transplanted at a rate of 5×10^6 cells/head subcutaneously into a right abdominal site of each of female BALB/c-nu/nu mice, and 6 days after, the mice were grouped into groups each consisting of 5 mice based on an estimated tumor volume (longer diameter×shorter diameter×shorter diameter/2) and the weight. […] The estimated tumor volume of each individual was measured from the day of grouping until 15 days after the transplantation (test end day).
as §3, with “grouping day) […]” for “grouping day)”

The test system of a further assay is VCaP cells. In words: Antitumor activity in VCaP cell subcutaneous transplant model (Test Example 8). Format: in vivo, male NSG mice. To be noted: dose 10 mg/kg/day, oral, QOD×8, 24 days after transplantation.
From the text: [Test Example 8] Evaluation of Antitumor Activity in VCaP Cell Subcutaneous Transplant Model
VCaP cells derived from human prostate cancer were transplanted at a rate of 1×10^7 cells/head subcutaneously into a right abdominal site of each of male NSG mice, and 8 days after, the mice were grouped into groups each consisting of 5 mice based on an estimated tumor volume (longer diameter×shorter diameter×shorter diameter/2) and the weight. The VCaP cells were purchased from American Type Culture Collection. […] The estimated tumor volume of each individual was measured from the day of grouping until 24 days after the transplantation (test end day).
as §3, with “grouping day) […]” for “grouping day)”

Sequence of CREBBP (Q92793 whole entry): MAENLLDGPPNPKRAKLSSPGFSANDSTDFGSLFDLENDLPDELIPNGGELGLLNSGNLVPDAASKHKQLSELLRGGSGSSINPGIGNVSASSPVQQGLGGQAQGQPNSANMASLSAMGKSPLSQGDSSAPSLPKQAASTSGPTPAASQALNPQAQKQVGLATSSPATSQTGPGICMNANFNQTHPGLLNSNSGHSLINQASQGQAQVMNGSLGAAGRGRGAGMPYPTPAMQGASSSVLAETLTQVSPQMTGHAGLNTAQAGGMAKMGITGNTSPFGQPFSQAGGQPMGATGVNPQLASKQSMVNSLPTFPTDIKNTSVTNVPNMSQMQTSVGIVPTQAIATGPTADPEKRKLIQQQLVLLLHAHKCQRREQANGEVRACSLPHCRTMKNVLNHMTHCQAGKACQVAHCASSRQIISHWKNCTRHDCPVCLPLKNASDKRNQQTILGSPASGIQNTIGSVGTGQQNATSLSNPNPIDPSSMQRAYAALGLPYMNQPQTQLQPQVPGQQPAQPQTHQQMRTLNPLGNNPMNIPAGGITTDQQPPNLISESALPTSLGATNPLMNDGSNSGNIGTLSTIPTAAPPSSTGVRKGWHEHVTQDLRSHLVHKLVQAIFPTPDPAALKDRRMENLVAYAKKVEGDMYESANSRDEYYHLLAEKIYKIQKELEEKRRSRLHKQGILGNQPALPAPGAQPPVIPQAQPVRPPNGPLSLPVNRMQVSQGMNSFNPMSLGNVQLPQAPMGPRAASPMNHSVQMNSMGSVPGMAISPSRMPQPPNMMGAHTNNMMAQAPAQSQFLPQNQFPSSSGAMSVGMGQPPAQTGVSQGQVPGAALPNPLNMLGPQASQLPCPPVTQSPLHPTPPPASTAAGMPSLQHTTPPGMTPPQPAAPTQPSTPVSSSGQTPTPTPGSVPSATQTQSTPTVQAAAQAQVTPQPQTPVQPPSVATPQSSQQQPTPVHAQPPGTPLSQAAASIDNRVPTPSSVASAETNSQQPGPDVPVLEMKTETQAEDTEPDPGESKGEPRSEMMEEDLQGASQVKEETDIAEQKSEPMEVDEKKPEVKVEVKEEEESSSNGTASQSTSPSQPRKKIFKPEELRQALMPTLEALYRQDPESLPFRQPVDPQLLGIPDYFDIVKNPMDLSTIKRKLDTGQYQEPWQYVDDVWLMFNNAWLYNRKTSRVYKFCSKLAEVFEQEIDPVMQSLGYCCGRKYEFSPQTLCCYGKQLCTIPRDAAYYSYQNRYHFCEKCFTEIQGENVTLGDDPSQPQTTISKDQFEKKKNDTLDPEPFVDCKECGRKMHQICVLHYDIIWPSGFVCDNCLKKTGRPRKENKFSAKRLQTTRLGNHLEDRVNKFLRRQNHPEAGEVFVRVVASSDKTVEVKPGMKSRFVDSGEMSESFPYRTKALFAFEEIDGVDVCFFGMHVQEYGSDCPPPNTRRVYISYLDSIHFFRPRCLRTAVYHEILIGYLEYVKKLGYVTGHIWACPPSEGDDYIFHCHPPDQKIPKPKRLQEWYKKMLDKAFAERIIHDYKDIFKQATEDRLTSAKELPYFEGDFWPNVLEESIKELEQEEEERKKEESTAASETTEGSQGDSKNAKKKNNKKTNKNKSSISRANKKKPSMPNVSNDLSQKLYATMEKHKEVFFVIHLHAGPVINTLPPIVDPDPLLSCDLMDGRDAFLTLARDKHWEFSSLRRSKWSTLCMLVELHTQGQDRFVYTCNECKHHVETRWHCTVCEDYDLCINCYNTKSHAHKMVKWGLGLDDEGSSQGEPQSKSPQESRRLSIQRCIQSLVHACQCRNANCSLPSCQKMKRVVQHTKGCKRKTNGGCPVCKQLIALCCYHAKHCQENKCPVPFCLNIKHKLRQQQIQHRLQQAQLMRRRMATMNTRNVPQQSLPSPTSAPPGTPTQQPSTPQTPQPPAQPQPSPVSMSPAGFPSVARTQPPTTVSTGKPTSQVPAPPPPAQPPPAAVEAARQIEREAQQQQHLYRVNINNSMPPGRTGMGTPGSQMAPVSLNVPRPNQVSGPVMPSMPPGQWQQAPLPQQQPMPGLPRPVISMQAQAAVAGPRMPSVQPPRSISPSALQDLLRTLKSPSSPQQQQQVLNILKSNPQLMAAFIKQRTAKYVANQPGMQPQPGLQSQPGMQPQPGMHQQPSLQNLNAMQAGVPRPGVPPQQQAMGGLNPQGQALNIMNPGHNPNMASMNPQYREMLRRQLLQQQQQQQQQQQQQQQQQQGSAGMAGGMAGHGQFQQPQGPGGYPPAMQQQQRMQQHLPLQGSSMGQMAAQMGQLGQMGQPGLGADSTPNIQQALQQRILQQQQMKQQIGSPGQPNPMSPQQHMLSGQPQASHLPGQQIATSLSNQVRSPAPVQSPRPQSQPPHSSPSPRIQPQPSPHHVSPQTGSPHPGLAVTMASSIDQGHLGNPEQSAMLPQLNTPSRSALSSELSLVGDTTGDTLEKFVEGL

On to `COc1ccc(C2(C(=O)N3C[C@H](F)C[C@@H]3C(=O)Nc3ccc4[nH]ncc4n3)CCCCC2)cc1F` [Example 37, (4R)-4-Fluoro-1-{[1-(3-fluoro-4-methoxyphenyl)cyclohexyl]carbonyl}-N-1H-pyrazolo[4,3-b]pyridin-5-yl-D-prolinamide], for which the GI50 is 85.9 nM in the assay with LK2 cells [1] and 113 nM with TE-8 cells [3]. Also, the IC50 at CREBBP stood at 18 nM; at EP300 it was 14 nM; with H3K27Ac, 16 nM. Further, the “Tumor Growth Inhibition Rate” value with LK2 cells [2] is listed as 42%.

Consider `COc1ccc(C2(C(=O)N3C[C@H](F)C[C@@H]3C(=O)Nc3ccc4c(n3)CC(=O)N4)CCC(F)(F)CC2)cc1` [Example 73, (4R)-1-{[4,4-Difluoro-1-(4-methoxyphenyl)cyclohexyl]carbonyl}-4-fluoro-N-(2-oxo-2,3-dihydro-1H-pyrrolo[3,2-b]pyridin-5-yl)-D-prolinamide], for which the GI50 is 610 nM in the assay with LK2 cells [1] and 620 nM in the assay with TE-8 cells [3]. The IC50 against CREBBP was found to be 148 nM; at EP300, 52 nM; with H3K27Ac it was 70 nM. Further, the “Tumor Growth Inhibition Rate” value in the assay with TE-8 cells [4] amounted to 65%.

Take `COc1ccc(C2(C(=O)N3C[C@H](F)C[C@@H]3C(=O)Nc3ccc4c(n3)CC(=O)N4)CCCCC2)cc1` [Example 66, (4R)-4-Fluoro-1-{[1-(4-methoxyphenyl)cyclohexyl]carbonyl}-N-(2-oxo-2,3-dihydro-1H-pyrrolo[3,2-b]pyridin-5-yl)-D-prolinamide]: the results for the GI50 in the assay on LK2 cells [1] and in the assay on TE-8 cells [3] were 548 nM and 847 nM, respectively. The half-maximal inhibitory concentration (IC50) was found to be 73 nM at CREBBP, 35 nM against EP300 and 17 nM in the assay with H3K27Ac. Further, the “Tumor Growth Inhibition Rate” value in the assay with TE-8 cells [4] is 54%.

Consider `O=C(Nc1ccc2[nH]ncc2n1)[C@H]1C[C@@H](F)CN1C(=O)C1(c2ccc(OC(F)F)cc2)CCC(F)(F)CC1` [Example 84, (4R)-1-({1-[4-(Difluoromethoxy)phenyl]-4,4-difluorocyclohexyl}carbonyl)-4-fluoro-N-1H-pyrazolo[4,3-b]pyridin-5-yl-D-prolinamide], for which the GI50 in the assay on LK2 cells [1] amounted to 97.2 nM; in the assay with TE-8 cells [3] it was 152 nM. Also, the “Tumor Growth Inhibition Rate” value was found to be 66% with NMC10-15 cells and 77% in the assay with VCaP cells. In addition, the figures for the IC50 against CREBBP, against EP300 and with H3K27Ac were 39 nM, 26 nM and 22 nM, respectively.

For `COc1ccc(C2(C(=O)N(C)[C@@H](C(=O)Nc3ccc4[nH]ncc4n3)[C@@H](C)O)CCC(F)(F)CC2)cc1` [Example 78, 4,4-Difluoro-N-[(2R,3R)-3-hydroxy-1-oxo-1-(1H-pyrazolo[4,3-b]pyridin-5-ylamino)butan-2-yl]-1-(4-methoxyphenyl)-N-methylcyclohexanecarboxamide], the GI50 amounted to 2150 nM in the assay on LK2 cells [1] and 4630 nM in the assay on TE-8 cells [3]. For the same molecule, the IC50 against CREBBP amounted to 323 nM; at EP300 it was 259 nM; in the assay with H3K27Ac, 769 nM.

Take `O=C(Nc1ccc2[nH]ncc2n1)[C@H]1[C@H](O)[C@@H](F)CN1C(=O)C1(c2ccc(OC(F)F)cc2)CCC(F)(F)CC1` [Example 95]: the GI50 with LK2 cells [1] is 179 nM; in the assay on TE-8 cells [3] it was 246 nM. The IC50 on CREBBP was 51 nM; against EP300, 36 nM; in the assay on H3K27Ac it was 20 nM.

`O=C(Nc1ccc2[nH]ncc2n1)[C@H]1C[C@@H](F)CN1C(=O)C1(c2ccc(OCF)c(F)c2)CC(F)(F)C1` [Example 86]: the figures for the 50% growth inhibitory concentration (GI50) in the assay with LK2 cells [1] and in the assay on TE-8 cells [3] were 86.8 nM and 101 nM, respectively. For the same molecule, the half-maximal inhibitory concentration (IC50) amounted to 40 nM on CREBBP, 23 nM at EP300 and 14 nM in the assay on H3K27Ac.

As to `CC(C)(O)c1ccc(C2(C(=O)N3C[C@H](F)C[C@@H]3C(=O)Nc3ccc4[nH]ncc4n3)CCC(F)(F)CC2)cc1` [Example 98, (4R)-1-({4,4-Difluoro-1-[4-(2-hydroxypropan-2-yl)phenyl]cyclohexyl}carbonyl)-4-fluoro-N-1H-pyrazolo[4,3-b]pyridin-5-yl-D-prolinamide], the GI50 in the assay with LK2 cells [1] is 267 nM; in the assay with TE-8 cells [3] it was 331 nM. The values for the IC50 on CREBBP, at EP300 and with H3K27Ac were 202 nM, 76 nM and 62 nM, respectively.

Turning to `O=C(Nc1ccc2[nH]ncc2n1)[C@H]1C[C@@H](F)CN1C(=O)C1(c2ccc(O)cc2)CCCCC1` [Example 82, (4R)-4-Fluoro-1-{[1-(4-hydroxyphenyl)cyclohexyl]carbonyl}-N-1H-pyrazolo[4,3-b]pyridin-5-yl-D-prolinamide], the concentration for 50% growth inhibition (GI50) in the assay with LK2 cells [1] was 75.1 nM; with TE-8 cells [3], 89.3 nM. The IC50 is 21 nM on CREBBP, 12 nM against EP300 and 13 nM in the assay with H3K27Ac.

For the molecule `CCOc1ccc(C2(C(=O)N3C[C@H](F)C[C@@H]3C(=O)Nc3ccc4[nH]ncc4n3)CC(F)(F)C2)cc1F` [Example 88], the GI50 came to 201 nM in the assay on LK2 cells [1] and 351 nM with TE-8 cells [3]. For the same molecule, the IC50 against CREBBP was 80 nM; against EP300, 37 nM; in the assay with H3K27Ac, 53 nM.

(Values after patent US11274100B2, “EP300/CREBBP inhibitor” (Daiichi Sankyo Company, Limited, priority 2017, dated 2022).)
